From publication PMC10321224 (RSC Advances, 2023) come the findings set out here.

Experiment [1] concerns DU-145 (hormone-refractory prostate cancer cells). Description: Resazurin antiproliferative assay, DU-145 cells. In kind it is cell-based, human. Conditions: towards HFF-1 cell lines. Background: The colour change of resazurin is a common sign of viable cells or microbes.
The subject of experiment [2] is MDA-MB-231 (triple-negative breast cancer cells). Description: Resazurin antiproliferative assay, MDA-MB-231 cells. It is filed as cell-based, human. Particulars: towards HFF-1 cell lines.

A value given as a limit tells only on which side of the number the result lay.

Consider `C[C@@H]1C[C@H](c2ccc(Br)cc2)c2c(cc3ccccn23)C(=O)O1` (racemic) [cis-4d], for which, in experiment [1], the “Selectivity index (SI = CC50/IC50) HFF-1/DU-145” value is 0.03. Besides, the “Selectivity index (SI = CC50/IC50) HFF-1/MDA-MB-231” value in experiment [2] is 0.06.

Take `COc1cc(OC)cc([C@H]2C[C@@H](C)OC(=O)c3cc4ccccn4c32)c1` (racemic) [cis-4f]: in experiment [1], the “Selectivity index (SI = CC50/IC50) HFF-1/DU-145” value is more than 2. Also, the “Selectivity index (SI = CC50/IC50) HFF-1/MDA-MB-231” value in experiment [2] is given as more than 5.
